These results are taken from patent US10670605B2, “Cysteine reactive probes and uses thereof” (The Scripps Research Institute, priority 2015, dated 2020).

Holding throughout (assay): Competitive isoTOP-ABPP in situ (fragment-treated cells)
Holding throughout (type): cell-based
Common to all, as to settings: 200 μM, insitu

Assay [1] deals with cysteines in MDA-MB-231 and Ramos cells (Homo sapiens, UniProt O00299).
The target of assay [2] is T1, cysteines in MDA-MB-231 and Ramos cells (Homo sapiens, UniProt O15294).
T1 sequence (O15294 1-1046): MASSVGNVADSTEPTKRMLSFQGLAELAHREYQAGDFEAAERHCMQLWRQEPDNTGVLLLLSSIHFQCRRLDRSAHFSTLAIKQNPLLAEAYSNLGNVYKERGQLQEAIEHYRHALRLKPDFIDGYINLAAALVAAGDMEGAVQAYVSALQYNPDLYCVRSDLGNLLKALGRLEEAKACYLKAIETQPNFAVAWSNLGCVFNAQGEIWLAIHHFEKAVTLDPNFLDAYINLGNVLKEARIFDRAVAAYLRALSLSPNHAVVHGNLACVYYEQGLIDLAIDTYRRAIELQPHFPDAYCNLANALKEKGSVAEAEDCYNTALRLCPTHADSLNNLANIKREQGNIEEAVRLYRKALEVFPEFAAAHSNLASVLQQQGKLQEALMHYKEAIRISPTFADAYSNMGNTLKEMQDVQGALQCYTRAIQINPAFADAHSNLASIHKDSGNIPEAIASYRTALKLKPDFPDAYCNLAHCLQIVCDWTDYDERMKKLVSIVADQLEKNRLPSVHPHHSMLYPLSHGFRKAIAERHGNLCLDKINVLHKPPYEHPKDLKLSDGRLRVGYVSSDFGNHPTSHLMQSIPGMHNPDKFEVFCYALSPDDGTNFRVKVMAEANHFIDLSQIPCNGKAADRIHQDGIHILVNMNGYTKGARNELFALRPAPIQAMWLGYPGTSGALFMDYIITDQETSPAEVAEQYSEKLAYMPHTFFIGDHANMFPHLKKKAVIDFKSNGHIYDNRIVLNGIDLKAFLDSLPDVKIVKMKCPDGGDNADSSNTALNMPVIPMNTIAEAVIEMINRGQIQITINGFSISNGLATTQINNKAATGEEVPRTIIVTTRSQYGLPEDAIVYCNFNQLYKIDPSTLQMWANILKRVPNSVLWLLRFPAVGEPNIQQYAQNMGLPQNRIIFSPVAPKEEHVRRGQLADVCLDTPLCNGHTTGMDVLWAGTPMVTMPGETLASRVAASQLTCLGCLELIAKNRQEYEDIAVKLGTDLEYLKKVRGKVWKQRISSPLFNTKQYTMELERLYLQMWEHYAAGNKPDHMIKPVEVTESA

Assay [3] has as its target T2, cysteines in MDA-MB-231 and Ramos cells (Homo sapiens, UniProt P24752).
T2 sequence (P24752 34-427): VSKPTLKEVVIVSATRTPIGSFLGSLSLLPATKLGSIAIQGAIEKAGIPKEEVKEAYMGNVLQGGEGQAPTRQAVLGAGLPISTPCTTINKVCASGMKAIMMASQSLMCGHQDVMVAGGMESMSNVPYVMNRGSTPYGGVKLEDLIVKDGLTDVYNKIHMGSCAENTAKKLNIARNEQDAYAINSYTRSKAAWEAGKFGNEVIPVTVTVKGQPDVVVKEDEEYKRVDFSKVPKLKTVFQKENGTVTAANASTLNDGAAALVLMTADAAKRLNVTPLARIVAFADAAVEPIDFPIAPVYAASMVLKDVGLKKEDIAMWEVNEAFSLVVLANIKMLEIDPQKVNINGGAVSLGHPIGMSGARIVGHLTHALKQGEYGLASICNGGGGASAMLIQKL

In assay [4] the target is T3, cysteines in MDA-MB-231 and Ramos cells (Homo sapiens, UniProt P25205).
T3 sequence (P25205 1-808): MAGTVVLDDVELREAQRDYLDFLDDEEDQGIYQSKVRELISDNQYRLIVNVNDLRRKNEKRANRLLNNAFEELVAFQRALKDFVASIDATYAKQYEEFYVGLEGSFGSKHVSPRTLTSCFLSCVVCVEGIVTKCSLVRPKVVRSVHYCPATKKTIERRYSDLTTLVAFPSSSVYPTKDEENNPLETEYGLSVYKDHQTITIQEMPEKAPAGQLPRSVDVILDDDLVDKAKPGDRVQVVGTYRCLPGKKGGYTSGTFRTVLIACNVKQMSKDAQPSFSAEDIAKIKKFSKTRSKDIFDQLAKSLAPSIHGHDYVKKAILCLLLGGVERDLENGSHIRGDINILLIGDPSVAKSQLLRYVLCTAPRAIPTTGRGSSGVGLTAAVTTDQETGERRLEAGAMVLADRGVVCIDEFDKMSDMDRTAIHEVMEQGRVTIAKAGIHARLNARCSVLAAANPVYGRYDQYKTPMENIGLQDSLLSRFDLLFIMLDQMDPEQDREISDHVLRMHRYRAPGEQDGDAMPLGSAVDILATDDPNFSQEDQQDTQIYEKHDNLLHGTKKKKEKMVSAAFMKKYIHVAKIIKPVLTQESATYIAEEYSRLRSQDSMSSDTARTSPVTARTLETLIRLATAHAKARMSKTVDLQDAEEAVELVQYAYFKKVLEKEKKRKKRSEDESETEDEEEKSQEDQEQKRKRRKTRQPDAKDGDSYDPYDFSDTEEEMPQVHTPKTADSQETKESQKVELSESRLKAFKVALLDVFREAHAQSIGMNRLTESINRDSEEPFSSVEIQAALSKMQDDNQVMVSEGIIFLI

Assay [5] addresses cysteines in MDA-MB-231 and Ramos cells (Homo sapiens, UniProt P61978).
In assay [6] the target is T4, cysteines in MDA-MB-231 and Ramos cells (Homo sapiens, UniProt Q9NS86).
T4 sequence (Q9NS86 1-450): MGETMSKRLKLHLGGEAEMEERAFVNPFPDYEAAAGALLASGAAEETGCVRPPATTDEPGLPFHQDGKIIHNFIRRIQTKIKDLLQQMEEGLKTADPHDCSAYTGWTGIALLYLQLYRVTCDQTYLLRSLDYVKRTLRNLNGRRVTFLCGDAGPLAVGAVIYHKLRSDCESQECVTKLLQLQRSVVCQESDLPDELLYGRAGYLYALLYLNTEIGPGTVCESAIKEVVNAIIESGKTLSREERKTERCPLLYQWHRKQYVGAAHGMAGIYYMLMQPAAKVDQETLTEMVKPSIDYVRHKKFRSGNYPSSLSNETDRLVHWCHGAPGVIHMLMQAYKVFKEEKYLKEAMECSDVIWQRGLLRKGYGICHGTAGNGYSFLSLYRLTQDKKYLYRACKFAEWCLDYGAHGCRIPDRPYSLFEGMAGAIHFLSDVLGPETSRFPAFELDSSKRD

Regarding `O=C(CCl)NCCc1c[nH]c2ccccc12` [compound 13], in assay [1] (ramos), the “isoTOP-ABPP ratio O00299_C24” value turned out to be 1.8. In assay [2] (231), the “isoTOP-ABPP ratio O15294_C758” value came to 1.0. The “isoTOP-ABPP ratio P24752_C119” value in assay [3] (231) is listed as 2.1; in assay [3] (ramos), 2.8. For the same compound, the “isoTOP-ABPP ratio P24752_C413” value in assay [3] (231) amounted to 3.5; in assay [3] (ramos) it was 20.0. Further, the “isoTOP-ABPP ratio P25205_C119” value was 1.1 in assay [4] (231) and 1.3 in assay [4] (ramos). In addition, the “isoTOP-ABPP ratio P61978_C132” value in assay [5] (231) and in assay [5] (ramos) was 1.1 in each case. Also, the “isoTOP-ABPP ratio Q9NS86_C187” value in assay [6] (231) is reported as 1.0; in assay [6] (ramos), 1.1.
Turning to `O=C(CCl)NC12CC3CC(CC(C3)C1)C2` [compound 21], the “isoTOP-ABPP ratio O00299_C24” value in assay [1] (231) is on record as 0.7. Further, the “isoTOP-ABPP ratio O15294_C758” value in assay [2] (231) was found to be 1.1. In addition, in assay [3] (231), the “isoTOP-ABPP ratio P24752_C119” value amounted to 1.6; the “isoTOP-ABPP ratio P24752_C413” value stood at 1.5; the “isoTOP-ABPP ratio, P24752_C126” value stood at 1.4; the “isoTOP-ABPP ratio, P24752_C196” value was determined as 1.5. For the same compound, the “isoTOP-ABPP ratio P25205_C119” value in assay [4] (231) came out at 1.1. The “isoTOP-ABPP ratio P61978_C132” value in assay [5] (231) turned out to be 1.4. Besides, in assay [6] (231), the “isoTOP-ABPP ratio Q9NS86_C187” value came to 0.9.
As to `CC(C)CCOCCNC(=O)CCl` [compound 27], in assay [1] (231), the “isoTOP-ABPP ratio O00299_C24” value stood at 0.7. In addition, the “isoTOP-ABPP ratio O15294_C758” value in assay [2] (231) was 1.0. Moreover, in assay [3] (231), the “isoTOP-ABPP ratio P24752_C119” value stood at 1.6 and the “isoTOP-ABPP ratio P24752_C413” value is on record as 1.9. Moreover, the “isoTOP-ABPP ratio P25205_C119” value in assay [4] (231) stood at 1.0. For the same compound, the “isoTOP-ABPP ratio P61978_C132” value in assay [5] (231) is listed as 0.9. Besides, the “isoTOP-ABPP ratio Q9NS86_C187” value in assay [6] (231) stood at 0.4.
For the compound `O=C(CCl)N1CCN(CC(=O)N2CCOCC2)CC1` [compound 29], the “isoTOP-ABPP ratio O00299_C24” value in assay [1] (ramos) turned out to be 1.1. Also, the “isoTOP-ABPP ratio O15294_C620” value in assay [2] (ramos) was determined as 2.6. In assay [3] (ramos), the “isoTOP-ABPP ratio P24752_C119” value stood at 1.2; the “isoTOP-ABPP ratio P24752_C413” value is 1.2; the “isoTOP-ABPP ratio, P24752_C126” value was found to be 1.2; the “isoTOP-ABPP ratio, P24752_C196” value worked out at 1.1. Also, the “isoTOP-ABPP ratio P25205_C119” value in assay [4] (ramos) is 1.3. In assay [5] (ramos), the “isoTOP-ABPP ratio P61978_C132” value stood at 1.2. Besides, the “isoTOP-ABPP ratio Q9NS86_C187” value in assay [6] (ramos) turned out to be 1.7.
In the case of `C=CC(=O)N(Cc1cccnc1)c1cc(C(F)(F)F)cc(C(F)(F)F)c1` [compound 31], the “isoTOP-ABPP ratio O00299_C24” value in assay [1] (231) is reported as 0.6. Moreover, the “isoTOP-ABPP ratio O15294_C620” value in assay [2] (231) came out at 1.1. Besides, in assay [3] (231), the “isoTOP-ABPP ratio P24752_C119” value is 0.6; the “isoTOP-ABPP ratio P24752_C413” value amounted to 1.0; the “isoTOP-ABPP ratio, P24752_C126” value is on record as 0.7. In addition, the “isoTOP-ABPP ratio P24752_C119” value in assay [3] (ramos) is 0.7. Further, in assay [4] (231), the “isoTOP-ABPP ratio P25205_C119” value is 0.5. Besides, the “isoTOP-ABPP ratio P61978_C132” value in assay [5] (231) came out at 0.9. For the same compound, the “isoTOP-ABPP ratio P61978_C132” value in assay [5] (ramos) amounted to 1.1. In assay [6] (231), the “isoTOP-ABPP ratio Q9NS86_C187” value is given as 0.5.
In the case of `Cc1ccc(C=C(C#N)C(=O)NCCN2CCOCC2)cc1` [compound 41], in assay [1] (231), the “isoTOP-ABPP ratio O00299_C24” value is on record as 0.6. In assay [2] (231), the “isoTOP-ABPP ratio O15294_C620” value was found to be 1.0 and the “isoTOP-ABPP ratio O15294_C758” value worked out at 0.9. In addition, in assay [3] (231), the “isoTOP-ABPP ratio P24752_C119” value was 1.9; the “isoTOP-ABPP ratio P24752_C413” value stood at 0.9; the “isoTOP-ABPP ratio, P24752_C126” value is given as 0.8; the “isoTOP-ABPP ratio, P24752_C196” value is reported as 0.9. Besides, in assay [4] (231), the “isoTOP-ABPP ratio P25205_C119” value came to 0.9. Further, in assay [5] (231), the “isoTOP-ABPP ratio P61978_C132” value is on record as 0.9. Also, the “isoTOP-ABPP ratio Q9NS86_C187” value in assay [6] (231) amounted to 0.6.
